Assay results from patent US8197860B2, “Method for enhancing nutrient absorption with astragalosides” (Nuliv Holding Inc., priority 2005, dated 2012).

What was measured:
Type in all cases: cell-based, human
Caco-2 cell monolayer [1] = assay: Tryptophan absorption assay (transport across Caco-2 cell monolayer); parameters: key to * (regulatory effect on tryptophan transport): ↑: the arrows that point up represent the enhancing effect on the tryptophan transport; conditions: for Regulatory effects on the tryptophan transport across the Caco2 cell monolayer: Table 4 summary; for Tryptophan transport rate: concentration from 0.01 μM to 1 mM
Method: (§1) To evaluate the effect of the isolated astragaloside compound on the uptake of nutrient substances across the intestinal lumen, Caco-2 cells were grown on permeable filter as an experimental model. Caco2 cells originate from human colonic adenocarcinoma and spontaneously differentiate into an enterocyte-like phenotype after two weeks. The Caco-2 cell line, derived from a human colorectal carcinoma, has been used as an in vitro model system for studying drug absorption in gastrointestinal tract. These cells form monolayers with well-developed tight-junctions, and have been evaluated in details as an in vitro model to study both transcellular transport of nutrients and drugs in intestinal lumen.
(§2) Caco-2 cells were obtained from the ATCC (American Type Culture Collection). The cells were maintained in Dulbecco's modified Eagle medium (DMEM) containing 4.5 g/L glucose and 25 mM Hepes, supplemented with 10% fetal calf serum, 100 U/mL penicillin G and […]. The medium was changed every second day. The cells were routinely checked for Mycoplasma in monthly intervals. Caco-2 cells were cultured on semi-permeable membranes to differentiate into a highly functionalized epithelial barrier with remarkable morphological and biochemical similarity to the small intestinal columnar epithelium. The Caco-2 cell monolayers could therefore be used to study the membrane transport properties of many compounds. To trypsinize the cells, the culture dish was washed once with phosphate-buffered saline (PBS) followed by adding trypsine-EDTA for 10 minutes. The trypsinized cells were separated and filtered into single cells using a 35-μm strainer cap (Falcon 2235) before being seeded for further experiments.
(§3) In measuring transport of arginine across the Caco-2 cell monolayer, both sides of the transwells were washed with arginine incubation buffer consisting of: 137 mM NaCl, 10 mM Hepes, 0.3 mM NaH2PO4, 0.3 mM K2HPO4, 5.4 mM KCl, 2.8 mM CaCl2, 1 mM MgSO4, 10 mM glucose, adjusted to pH 7.4. Then, the cell layer was preincubated in the incubation buffer at 37° C. for 1 h. The volume of incubation buffer was 0.2 mL and 0.9 mL in the apical and basolateral chambers, respectively. The cells were replaced with fresh incubation medium in both chambers prior to the transport experiment. The transport experiment was initiated by replacing the incubation solution on the apical side with solution containing 10 mM of L-arginine in which 0.125 μCi/mL of L-[^3H]-arginine was included. At designated time intervals, 10 μL-solution samples were removed from the basolateral side and radioactivity of each sample was counted using a microplate liquid scintillation counter (TopCount, Packard NXT). During the experiment, when a 10 μL-solution sample was removed from the basolateral side every time, 10 μL buffer was supplemented to keep the volume constant. The uptake of [^3H]-mannitol was used to correct for nonspecific transport of molecules across the monolayer membrane. Results were expressed as the nanomoles of arginine transport across the Caco-2 cell monolayers with respect to time in minutes (nmol/min).
The experimental procedures similar to those in Example 2 were used for measuring the uptake of tryptophan molecules across the Caco-2 membrane, except using a tryptophan incubation buffer consisting of 137 mM choline chloride, 10 mM Hepes, 0.6 mM KH2PO4, 5.4 mM KCl, 2.8 mM CaCl2, 1 mM MgSO4, and 10 mM glucose, and having its pH adjusted to 7.4. Results were expressed as the nanomoles of tryptophan transport across the Caco-2 cell monolayers with respect to time in minutes (nmol/min).

Caco2 cells = assay: Folate uptake assay; parameters: key to * (regulatory effect on folate uptake): ↑: the arrows that point up represent the enhancing effect on folate uptake; conditions: compound 0.1 μM; for Uptake rate (folate): 2 days, 5 μM folate, pH 6.0
Method: as §1, §2
Caco-2 cells (5×10^4) were seeded in a 48-well plate and maintained in culture medium (DMEM with 10% FBS, 1% nonessential amino acids, L-glutamine, penicillin G (100 U/mL), streptomycin (10 μg/mL), and amphotericin B (2.5 μg/mL) in a 37° C. incubator for 10 days for the cells to differentiate. The culture medium was changed once every two days. The cells were then washed with PBS before replenishing with the culture medium containing 5% FBS and various astragalosides at the indicated concentrations (0.01, 0.1 and 1 μM) for 48 hours. The Caco2 cells were washed out of remaining glucose with PBS and replaced in the glucose buffer (80 mM NaCl, 100 mM mannitol, 20 mM Tris-HCl, pH 7.4, 3 mM K2HPO4, 1 mM CaCl2, 1 mg/mL BSA) for 1 hour. Glucose uptake was initiated by replacing the glucose buffer with 0.2 ml of glucose buffer containing 2 μCi/mL of ^14C-glucose and unlabeled cold glucose to give a final glucose concentration of 25 mM. Glucose uptake was stopped by removing the glucose buffer and washing with PBS at designated time intervals. The cells were lysed in 0.2 mL of 0.2 N NaOH, and 20 μL of the cell lysate were transferred to the filter-bottomed UniFilter plates (Perkin-Elmer, Wellesley, Mass., USA) and dried in a vacuum oven at 37° C. The bottom of the UniFilter plate was sealed and 25 μL of the counting solution were added into each well. Adhesive plate sealers were used in place of the lids and radioactivity of each sample was counted using the microplate liquid scintillation counter (TopCount, Packard NXT, Packard BioScience Company, Meriden, Conn., USA). The amount of glucose accumulated in the cells was calculated and normalized to protein concentration, and uptake rate was expressed as nanomoles of glucose per minutes per milligram of cell protein (nmol/min/mg). Protein concentration was determined by a standard Bicinchoninic acid (BCA) protein assay. Nonspecific glucose uptake was measured by adding 2 μCi of L-[^14C]-glucose and subtracting from each determination to obtain specific glucose uptake.
The Caco2 cells were subjected to folate uptake test in a manner similar to that described in the glucose uptake assay in Example 1 above. […]

Caco-2 cell monolayer [2] = assay: Arginine absorption assay (transport across Caco-2 cell monolayer); parameters: key to * (regulatory effect on arginine transport): ↑: the arrows that point up represent the enhancing effect on the arginine transport; conditions: for Regulatory effects on the arginine transport across the Caco2 cell monolayer: Table 3 summary; for Transport rate (arginine): 10 mM L-arginine apical
Method: as §1, §2, §3

[3] = concentration from 0.01 μM to 1 μM

CC(=O)O[C@H]1[C@H](O[C@H]2CC[C@]34C[C@]35CC[C@]3(C)[C@@H]([C@@]6(C)CC[C@@H](C(C)(C)O)O6)[C@@H](O)C[C@@]3(C)[C@@H]5C[C@H](O[C@@H]3O[C@H](CO)[C@@H](O)[C@H](O)[C@H]3O)[C@H]4C2(C)C)OC[C@@H](O)[C@@H]1O [AS2, astragaloside II]
Regulatory effects on the tryptophan transport across the Caco2 cell monolayer (Caco-2 cell monolayer [1]): had regulatory effects on the tryptophan transport
* (regulatory effect on tryptophan transport) (Caco-2 cell monolayer [1]; compound 0.01 μM): ↑
Percentage (tryptophan transport, control = 100) (Caco-2 cell monolayer [1]; compound 0.01 μM): 115.07%
Transport rate (tryptophan) (Caco-2 cell monolayer [1]; compound 0.01 μM): 10.290 ± 0.4115 nmol/min
* (regulatory effect on tryptophan transport) (Caco-2 cell monolayer [1]; compound 0.1 μM): ↑
Percentage (tryptophan transport, control = 100) (Caco-2 cell monolayer [1]; compound 0.1 μM): 130.28%
Transport rate (tryptophan) (Caco-2 cell monolayer [1]; compound 0.1 μM): 11.650 ± 0.5789 nmol/min
Tryptophan transport rate (Caco-2 cell monolayer [1]): increased
* (regulatory effect on folate uptake) (Caco2 cells): ↑
Percentage (folate uptake vs own control) (Caco2 cells): 129.05%
Uptake rate (folate) (Caco2 cells): 69.970 ± 3.7720 pmol/mg/min
Regulatory effects on the arginine transport across the Caco2 cell monolayer (Caco-2 cell monolayer [2]): had regulatory effects on the arginine transport
* (regulatory effect on arginine transport) (Caco-2 cell monolayer [2]; compound 0.001 μM): ↑
Percentage (arginine transport, control = 100) (Caco-2 cell monolayer [2]; compound 0.001 μM): 136.97%
Transport rate (arginine) (Caco-2 cell monolayer [2]; compound 0.001 μM): 14.6355 ± 1.2910 nmol/min
* (regulatory effect on arginine transport) (Caco-2 cell monolayer [2]; compound 0.01 μM): ↑
Percentage (arginine transport, control = 100) (Caco-2 cell monolayer [2]; compound 0.01 μM): 151.94%
Transport rate (arginine) (Caco-2 cell monolayer [2]; compound 0.01 μM): 16.2358 ± 1.6190 nmol/min
* (regulatory effect on arginine transport) (Caco-2 cell monolayer [2]; compound 0.1 μM): ↑
Percentage (arginine transport, control = 100) (Caco-2 cell monolayer [2]; compound 0.1 μM): 161.69%
Transport rate (arginine) (Caco-2 cell monolayer [2]; compound 0.1 μM): 17.2771 ± 1.6170 nmol/min
Arginine transport rate (Caco-2 cell monolayer [2]; concentration from 0.001 μM to 0.1 μM): increased

CC(C)(O)[C@@H]1CC[C@](C)([C@H]2[C@@H](O)C[C@@]3(C)[C@@H]4C[C@H](O)[C@H]5C(C)(C)[C@@H](O[C@@H]6OC[C@@H](O)[C@H](O)[C@H]6O[C@@H]6O[C@H](CO)[C@@H](O)[C@H](O)[C@H]6O)CC[C@@]56C[C@@]46CC[C@]23C)O1 [AS3, astragaloside III]
Regulatory effects on the tryptophan transport across the Caco2 cell monolayer (Caco-2 cell monolayer [1]): had regulatory effects on the tryptophan transport
* (regulatory effect on tryptophan transport) (Caco-2 cell monolayer [1]; compound 0.01 μM): ↑
Percentage (tryptophan transport, control = 100) (Caco-2 cell monolayer [1]; compound 0.01 μM): 159.81%
Transport rate (tryptophan) (Caco-2 cell monolayer [1]; compound 0.01 μM): 14.290 ± 1.3910 nmol/min
* (regulatory effect on tryptophan transport) (Caco-2 cell monolayer [1]; compound 0.1 μM): ↑
Percentage (tryptophan transport, control = 100) (Caco-2 cell monolayer [1]; compound 0.1 μM): 151.98%
Transport rate (tryptophan) (Caco-2 cell monolayer [1]; compound 0.1 μM): 13.590 ± 1.0080 nmol/min
* (regulatory effect on tryptophan transport) (Caco-2 cell monolayer [1]; compound 1 μM): ↑
Percentage (tryptophan transport, control = 100) (Caco-2 cell monolayer [1]; compound 1 μM): 270.63%
Transport rate (tryptophan) (Caco-2 cell monolayer [1]; compound 1 μM): 24.200 ± 1.0260 nmol/min
Tryptophan transport rate (Caco-2 cell monolayer [1]): increased
* (regulatory effect on folate uptake) (Caco2 cells): ↑
Percentage (folate uptake vs own control) (Caco2 cells): 145.41%
Uptake rate (folate) (Caco2 cells): 80.380 ± 6.2170 pmol/mg/min
Regulatory effects on the arginine transport across the Caco2 cell monolayer (Caco-2 cell monolayer [2]): had regulatory effects on the arginine transport
* (regulatory effect on arginine transport) (Caco-2 cell monolayer [2]; compound 0.01 μM): ↑
Percentage (arginine transport, control = 100) (Caco-2 cell monolayer [2]; compound 0.01 μM): 121.74%
Transport rate (arginine) (Caco-2 cell monolayer [2]; compound 0.01 μM): 13.0084 ± 1.0510 nmol/min
* (regulatory effect on arginine transport) (Caco-2 cell monolayer [2]; compound 0.1 μM): ↑
Percentage (arginine transport, control = 100) (Caco-2 cell monolayer [2]; compound 0.1 μM): 124.33%
Transport rate (arginine) (Caco-2 cell monolayer [2]; compound 0.1 μM): 13.2858 ± 1.4110 nmol/min
* (regulatory effect on arginine transport) (Caco-2 cell monolayer [2]; compound 1 μM): ↑
Percentage (arginine transport, control = 100) (Caco-2 cell monolayer [2]; compound 1 μM): 148.18%
Transport rate (arginine) (Caco-2 cell monolayer [2]; compound 1 μM): 15.8341 ± 1.0000 nmol/min
Arginine transport rate (Caco-2 cell monolayer [2]; [3]): increased

CC(=O)O[C@H]1[C@H](O[C@H]2CC[C@]34C[C@]35CC[C@]3(C)[C@@H]([C@@]6(C)CC[C@@H](C(C)(C)O)O6)[C@@H](O)C[C@@]3(C)[C@@H]5C[C@H](O[C@@H]3O[C@H](CO)[C@@H](O)[C@H](O)[C@H]3O)[C@H]4C2(C)C)OC[C@@H](OC(C)=O)[C@@H]1O [IsoAS1, isoastragaloside I]
Regulatory effects on the tryptophan transport across the Caco2 cell monolayer (Caco-2 cell monolayer [1]): had regulatory effects on the tryptophan transport
* (regulatory effect on tryptophan transport) (Caco-2 cell monolayer [1]; compound 0.01 μM): ↑
Percentage (tryptophan transport, control = 100) (Caco-2 cell monolayer [1]; compound 0.01 μM): 115.97%
Transport rate (tryptophan) (Caco-2 cell monolayer [1]; compound 0.01 μM): 10.370 ± 0.8808 nmol/min
* (regulatory effect on tryptophan transport) (Caco-2 cell monolayer [1]; compound 0.1 μM): ↑
Percentage (tryptophan transport, control = 100) (Caco-2 cell monolayer [1]; compound 0.1 μM): 149.52%
Transport rate (tryptophan) (Caco-2 cell monolayer [1]; compound 0.1 μM): 13.370 ± 0.3301 nmol/min
* (regulatory effect on tryptophan transport) (Caco-2 cell monolayer [1]; compound 1 μM): ↑
Percentage (tryptophan transport, control = 100) (Caco-2 cell monolayer [1]; compound 1 μM): 118.54%
Transport rate (tryptophan) (Caco-2 cell monolayer [1]; compound 1 μM): 10.600 ± 0.8058 nmol/min
Tryptophan transport rate (Caco-2 cell monolayer [1]): increased
* (regulatory effect on folate uptake) (Caco2 cells): ↑
Percentage (folate uptake vs own control) (Caco2 cells): 144.83%
Uptake rate (folate) (Caco2 cells): 73.460 ± 3.6060 pmol/mg/min
Regulatory effects on the arginine transport across the Caco2 cell monolayer (Caco-2 cell monolayer [2]): had regulatory effects on the arginine transport
* (regulatory effect on arginine transport) (Caco-2 cell monolayer [2]; compound 0.01 μM): ↑
Percentage (arginine transport, control = 100) (Caco-2 cell monolayer [2]; compound 0.01 μM): 135.49%
Transport rate (arginine) (Caco-2 cell monolayer [2]; compound 0.01 μM): 14.4776 ± 0.5519 nmol/min
* (regulatory effect on arginine transport) (Caco-2 cell monolayer [2]; compound 0.1 μM): ↑
Percentage (arginine transport, control = 100) (Caco-2 cell monolayer [2]; compound 0.1 μM): 199.44%
Transport rate (arginine) (Caco-2 cell monolayer [2]; compound 0.1 μM): 21.3107 ± 1.5130 nmol/min
* (regulatory effect on arginine transport) (Caco-2 cell monolayer [2]; compound 1 μM): ↑
Percentage (arginine transport, control = 100) (Caco-2 cell monolayer [2]; compound 1 μM): 135.41%
Transport rate (arginine) (Caco-2 cell monolayer [2]; compound 1 μM): 14.4734 ± 1.1350 nmol/min
Arginine transport rate (Caco-2 cell monolayer [2]; [3]): increased
